Values quoted from earlier work in article PMC3694426 (Clinical cancer research : an official journal of the …, 2013).
pIC50: −log10 of the molar value.

Columns and labels:
[1] = test system: transgenic pancreatic cancer models; details: cited from earlier work
Smo receptor = details: read-out: IC50, binding to the Smo receptor; stated in introduction; cited from earlier work
[2] = test system: pancreatic tumor model with elevated Shh (sonic hedgehog) expression; details: stated in introduction; cited from earlier work

Question: Which “intratumoral concentration of gemcitabine” value [1] does the source give for `CC1=C2C[C@H]3[C@@H](CC[C@@H]4C[C@H](NS(C)(=O)=O)CC[C@@]43C)[C@@H]2CC[C@@]2(C1)O[C@@H]1C[C@H](C)CN[C@H]1[C@H]2C` [IPI-926] here?
Answer: Its value is “enhanced intratumoral concentration of gemcitabine”.

Question: What about the pIC50 (Smo receptor) of the same compound?
Answer: The pIC50 was 8.85.

Question: What about the “Shh signaling in surrounding stromal tissue (Gli1 mRNA)” value [2] of the same compound?
Answer: The value was “inhibited Shh signaling”.

Question: And the tumor growth [2]?
Answer: The tumor growth was “slows tumor growth”.
